Test results taken from article PMC8371548 (BioTechniques, 2021).
Entries after “also recorded” stand apart in the source; their conditions may differ.

What was measured:
AR [1] = details: cited from earlier work; for EC50: read-out: AR-EcoScreen assay EC50, ref Dennis et al. [18]
H295R cells = assay: H295R cell-based steroidogenesis assay; parameters: species or system human; details: for effect on testosterone production in words: 10^−11 to 10^−5 M
AR [2] = details: read-out: IC50 range in ICCVAM meta-analysis; cited from earlier work
AR [3] = details: at high concentrations (10^−5 M); cited from earlier work
androgen receptor (AR) = biological target: T1, androgen receptor (AR) (Homo sapiens, UniProt P10275); format: cell-based
T1 sequence (P10275 1-920): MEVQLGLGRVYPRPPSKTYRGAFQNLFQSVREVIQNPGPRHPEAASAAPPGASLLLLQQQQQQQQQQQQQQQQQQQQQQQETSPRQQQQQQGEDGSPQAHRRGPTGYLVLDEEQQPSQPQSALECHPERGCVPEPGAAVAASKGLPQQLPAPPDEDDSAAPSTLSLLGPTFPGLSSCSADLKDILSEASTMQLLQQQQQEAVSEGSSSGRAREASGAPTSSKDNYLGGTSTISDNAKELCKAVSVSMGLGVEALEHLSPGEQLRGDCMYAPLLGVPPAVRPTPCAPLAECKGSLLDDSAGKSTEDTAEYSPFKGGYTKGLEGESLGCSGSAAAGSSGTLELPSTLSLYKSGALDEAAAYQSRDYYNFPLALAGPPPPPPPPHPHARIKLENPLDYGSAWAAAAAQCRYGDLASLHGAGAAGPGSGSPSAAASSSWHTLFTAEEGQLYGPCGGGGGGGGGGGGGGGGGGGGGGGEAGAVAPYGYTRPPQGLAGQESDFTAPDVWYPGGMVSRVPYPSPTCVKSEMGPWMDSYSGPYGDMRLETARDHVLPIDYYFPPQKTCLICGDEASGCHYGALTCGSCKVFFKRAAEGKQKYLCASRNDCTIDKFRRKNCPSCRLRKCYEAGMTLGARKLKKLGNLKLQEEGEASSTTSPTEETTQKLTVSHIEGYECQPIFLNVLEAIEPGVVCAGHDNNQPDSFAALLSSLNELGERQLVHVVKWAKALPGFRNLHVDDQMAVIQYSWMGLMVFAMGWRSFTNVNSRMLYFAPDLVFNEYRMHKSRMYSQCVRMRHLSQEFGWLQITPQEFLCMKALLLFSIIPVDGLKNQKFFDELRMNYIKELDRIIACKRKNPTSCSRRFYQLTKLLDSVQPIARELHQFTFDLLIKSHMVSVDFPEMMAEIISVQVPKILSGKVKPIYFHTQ

AR [4] = details: cited from earlier work
AR [5] = details: cited from earlier work; remark: listed apart in the source
AR [6] = details: cited from earlier work; remark: listed apart in the source

In the case of CC(C)(O)C(=O)Nc1ccc([N+](=O)[O-])c(C(F)(F)F)c1 [Hydroxyflutamide], the “effect on testosterone production in words” value (“effect … in words” for short) (H295R cells) is given as “did not alter testosterone production”, the “effect … in words” value (H295R cells; listed as hydroxyflutamide) is given as “did not change testosterone levels” and the IC50 (AR [2]) is given as […]. For the same compound, the “AR transcriptional activation activity” value (AR [3]) was “low AR transcriptional activation activity”.

In the case of C#CC1(O)CC[C@H]2[C@@H]3CCC4=CC(=O)CC[C@@H]4[C@H]3CC[C@@]21CC (mixture of isomers) [Norgestrel, norgestrel], the “effect … in words” value (H295R cells) is reported as “increased testosterone production” and the EC50 (H295R cells; Homo sapiens, NCI-H295R, read-out: H295R testosterone assay EC50) is reported as 730 nM.

In the case of C[C@]12C=CC3=C4CCC(=O)C=C4CC[C@H]3[C@@H]1CC[C@@H]2O [17β-Trenbolone, 17ß-Trenbolone], the “AR agonist activity in words” value (androgen receptor (AR)) is reported as “strongly induced autobioluminescence; also recorded: induced autobioluminescent signal exceeding the maximal response of 5α-dihydrotestosterone”.

In the case of CC(=O)N1CCN(c2ccc(OCC3COC(Cn4ccnc4)(c4ccc(Cl)cc4Cl)O3)cc2)CC1 (stereo not drawn) [Ketoconazole], the “AR agonist classification in AR-EcoScreen assay” value (AR [1]) is listed as “negative AR agonist” and the “AR agonism response in yeast assays” value (AR [4]) is listed as “positive AR agonism response”.

In the case of CC(C)C(=O)Nc1ccc([N+](=O)[O-])c(C(F)(F)F)c1 [Flutamide], the “effect … in words” value (H295R cells) is reported as “did not induce autobioluminescence or change testosterone production” and the “effect … in words” value (H295R cells; listed as flutamide) is reported as “did not demonstrate a detectable change in testosterone production”.

In the case of C[C@]12C[C@H](O)[C@H]3[C@@H](CCC4=CC(=O)CC[C@@]43C)[C@@H]1CC[C@@H]2C(=O)CO [Corticosterone], the “AR agonist classification in AR-EcoScreen assay” value (AR [1]) is listed as “Positive AR transcriptional activity”, the “AR transcriptional activity in MDA-kb2 assay” value (AR [5]) is listed as “Positive AR transcriptional activity” and the “AR agonistic effects in yeast-based reporter assays” value (AR [4]) is listed as “failed to elicit positive AR agonistic effects”.

For C#C[C@]1(O)CC[C@H]2[C@@H]3CCc4cc(O)ccc4[C@H]3CC[C@@]21C [17α-Ethinylestradiol, 17α-Ethynylestradiol], the “AR antagonist classification in AR-EcoScreen assay” value (AR [6]) is given as “AR antagonist”.
